Experimental data reported in patent publication US20160223562A1, “Method for Determining the Concentration of a Peptide” (JPT Peptide Technologies GmbH, priority 2010, published 2016).
Square brackets hold non-standard residues; d marks the D form. Peptide text beside a SMILES is read from it. Tyr(3-NO2) = N[C@@H](Cc1ccc(O)c([N+](=O)[O-])c1)C(=O)O

Assays:
Trypsin [1] = target: T1, Trypsin (Sus scrofa, UniProt P00761); assay: Trypsin cleavage of C-terminal quantification tag -SA-nitroTyr-G from peptides, LC-MS with UV detection at 350 nm; format: biochemical; settings: after reduction and alkylation, trypsin enzyme/substrate 1:50 over night at RT
T1 construct: purchased Promega Corporation V511
T1 sequence (P00761 9-231): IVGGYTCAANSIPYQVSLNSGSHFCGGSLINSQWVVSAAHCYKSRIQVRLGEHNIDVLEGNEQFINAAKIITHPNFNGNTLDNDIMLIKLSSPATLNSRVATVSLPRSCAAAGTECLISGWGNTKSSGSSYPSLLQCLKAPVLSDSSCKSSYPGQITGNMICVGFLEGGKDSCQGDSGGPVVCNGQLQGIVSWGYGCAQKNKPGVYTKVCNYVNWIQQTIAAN
Protocol: 23 peptides carrying the C-terminal quantification-tag-SA-nitroTyr-G-OH (SEQ ID NO:2) were synthesized by Fmoc-based solid phase peptide synthesis and purified by HPLC. Each peptide was subjected to the following trypsin cleavage protocol:
(§1) Trypsin Activation: Trypsin (20 μg, sequencing grade modified trypsin, Promega Corporation, Madison, Wis., USA, catalogue no. V511, specific activity 16.965 u/mg) was dissolved in Trypsin resuspension buffer (200 μL, Promega, catalogue no. V542A, ingredient 50 mM acetic acid) and incubated for 15 min at 37° C.
(§2) Reduction and alkylation: The peptide (approx. 0.05 mg) was dissolved in 1 M urea and 100 mM fresh ammonium hydrogen carbonate (300 μL). TCEP (Tris(2-carboxyethyl) phosphine hydrochloride, 0.2 M, 7.5 μL, final concentration 5 mM) was added and the solution incubated at 37° C. for 1 h. After addition of iodoacetamide (0.5 M, 6.0 μL, final concentration 10 mM) the solution was incubated at RT in the dark for another 30 min. Digestion: The sample was digested with activated Trypsin solution (10 μL per well, 1.0 μg, resulting enzyme/substrate ratio 1:50) over night at RT. To stop the digestion, HCl (2 M, 8 μL final concentration 50 mM) and TFA (3.2 μL, final concentration 1%, pH<2) were added. Finally, the sample was analyzed by LC-MS at 350 nm.

Trypsin [2] = target: T1, Trypsin; assay: Trypsin cleavage of N-terminal quantification tag Ac-nitroTyr-SGK- from peptides, LC-MS with UV detection at 350 nm; format: biochemical; settings: for Kusebauch 24 h, RT: Percent Cleavage of Tag [by UV350 - Peptide-Tag vs. Tag]: trypsin protocol of example 9, 24 h; for cleavage efficiency in words: trypsin
Protocol: as §1, §2
38 peptides carrying the N-terminal quantification-tag Ac-nitroTyr-SGK-(SEQ ID NO:32) were synthesized by SPOT synthesis (Table 3). The peptide sequences are based on two different amino acid sequences, which in each case contain 19 different amino acids N-terminally attached to lysine (the 20 naturally occurring amino acids except cysteine).
All peptides were subjected to the same trypsin cleavage protocol as described in example 9. It is apparent that the quantification tag is efficiently cleaved (>99%) in nearly all cases.

| Molecule | Percent Cleavage of Tag [by UV at 350 nm] (Trypsin [1]) [%] | Kusebauch 24 h, RT: Percent Cleavage of Tag [by UV350 - Peptide-Tag vs. Tag] (Trypsin [2]) [%] | cleavage efficiency in words (Trypsin [2]) |
| --- | --- | --- | --- |
| CC[C@H](C)[C@H](NC(=O)[C@H](CC(C)C)NC(=O)[C@@H](N)CCC(=O)O)C(=O)N[C@@H](Cc1ccccc1)C(=O)N[C@@H](CCC(N)=O)C(=O)N[C@@H](CCC(=O)O)C(=O)N[C@H](C(=O)N[C@@H](C)C(=O)N[C@@H](CCCNC(=N)N)C(=O)N[C@@H](CO)C(=O)N[C@@H](C)C(=O)N[C@@H](Cc1ccc(O)c([N+](=O)[O-])c1)C(=O)NCC(=O)O)[C@@H](C)O [Peptide 22] (H-ELIFQETARSA[Tyr(3-NO2)]G-OH) | 100 |  |  |
| CC[C@H](C)[C@H](NC(=O)[C@H](Cc1ccccc1)NC(=O)[C@H](Cc1ccc(O)cc1)NC(=O)[C@H](Cc1c[nH]cn1)NC(=O)[C@@H](NC(=O)[C@H](CCC(=O)O)NC(=O)[C@H](CCCCN)NC(=O)CNC(=O)[C@H](CO)NC(=O)[C@H](Cc1ccc(O)c([N+](=O)[O-])c1)NC(C)=O)[C@@H](C)O)C(=O)N[C@@H](CC(=O)O)C(=O)N[C@@H](CC(C)C)C(=O)N[C@@H](CC(N)=O)C(=O)N[C@@H](CCCCN)C(=O)O [Peptide 4, Ac-nitroTyr-SGKETHYFIDLN-K-OH] (Ac-[Tyr(3-NO2)]SGKETHYFIDLNK-OH) | 100 | 100.0 |  |
| CC[C@H](C)[C@H](NC(=O)[C@H](Cc1ccccc1)NC(=O)[C@H](Cc1ccc(O)cc1)NC(=O)[C@H](Cc1c[nH]cn1)NC(=O)[C@@H](NC(=O)[C@H](CC(C)C)NC(=O)[C@H](CCCCN)NC(=O)CNC(=O)[C@H](CO)NC(=O)[C@H](Cc1ccc(O)c([N+](=O)[O-])c1)NC(C)=O)[C@@H](C)O)C(=O)N[C@@H](CC(=O)O)C(=O)N[C@@H](CC(C)C)C(=O)N[C@@H](CC(N)=O)C(=O)N[C@@H](CCCCN)C(=O)O [Peptide 10, Ac-nitroTyr-SGKLTHYFIDLN-K-OH] (Ac-[Tyr(3-NO2)]SGKLTHYFIDLNK-OH) | 100 | 100.0 |  |
| CC[C@H](C)[C@H](NC(=O)[C@H](Cc1ccccc1)NC(=O)[C@H](Cc1ccc(O)cc1)NC(=O)[C@H](Cc1c[nH]cn1)NC(=O)[C@@H](NC(=O)[C@@H]1CCCN1C(=O)[C@H](CCCCN)NC(=O)CNC(=O)[C@H](CO)NC(=O)[C@H](Cc1ccc(O)c([N+](=O)[O-])c1)NC(C)=O)[C@@H](C)O)C(=O)N[C@@H](CC(=O)O)C(=O)N[C@@H](CC(C)C)C(=O)N[C@@H](CC(N)=O)C(=O)N[C@@H](CCCCN)C(=O)O [Peptide 13, Ac-nitroTyr-SGKPTHYFIDLN-K-OH] (Ac-[Tyr(3-NO2)]SGKPTHYFIDLNK-OH) | 99.4 | 37.0 | not efficiently cleaved |
| CC(=O)N[C@@H](Cc1ccc(O)c([N+](=O)[O-])c1)C(=O)N[C@@H](CO)C(=O)NCC(=O)N[C@@H](CCCCN)C(=O)N[C@@H](C)C(=O)N[C@H](C(=O)N[C@@H](C)C(=O)N[C@@H](CC(C)C)C(=O)N[C@@H](CO)C(=O)N[C@@H](CC(C)C)C(=O)N[C@@H](CC(=O)O)C(=O)N[C@@H](CC(=O)O)C(=O)N[C@H](C(=O)N[C@@H](CCCCN)C(=O)O)C(C)C)C(C)C [Peptide 21, Ac-nitroTyr-SGKAVALSLDDV-K-OH] (Ac-[Tyr(3-NO2)]SGKAVALSLDDVK-OH) | 100 | 100.0 |  |
| Ac-nitroTyr-SGKATHYFIDLN-K-OH (Ac-[Tyr(3-NO2)]SGKATHYFIDLNK-OH; SMILES CC[C@H](C)[C@H](NC(=O)[C@H](Cc1ccccc1)NC(=O)[C@H](Cc1ccc(O)cc1)NC(=O)[C@H](Cc1c[nH]cn1)NC(=O)[C@@H](NC(=O)[C@H](C)NC(=O)[C@H](CCCCN)NC(=O)CNC(=O)[C@H](CO)NC(=O)[C@H](Cc1ccc(O)c([N+](=O)[O-])c1)NC(C)=O)[C@@H](C)O)C(=O)N[C@@H](CC(=O)O)C(=O)N[C@@H](CC(C)C)C(=O)N[C@@H](CC(N)=O)C(=O)N[C@@H](CCCCN)C(=O)O) [Peptide 1] | 100 | 100.0 |  |
| CC[C@H](C)[C@H](NC(=O)[C@H](Cc1ccccc1)NC(=O)[C@H](Cc1ccc(O)cc1)NC(=O)[C@H](Cc1c[nH]cn1)NC(=O)[C@@H](NC(=O)[C@@H](NC(=O)[C@H](CCCCN)NC(=O)CNC(=O)[C@H](CO)NC(=O)[C@H](Cc1ccc(O)c([N+](=O)[O-])c1)NC(C)=O)C(C)C)[C@@H](C)O)C(=O)N[C@@H](CC(=O)O)C(=O)N[C@@H](CC(C)C)C(=O)N[C@@H](CC(N)=O)C(=O)N[C@@H](CCCCN)C(=O)O [Peptide 18, Ac-nitroTyr-SGKVTHYFIDLN-K-OH] (Ac-[Tyr(3-NO2)]SGKVTHYFIDLNK-OH) | 100 | 100.0 |  |
| CC(=O)N[C@@H](Cc1ccc(O)c([N+](=O)[O-])c1)C(=O)N[C@@H](CO)C(=O)NCC(=O)N[C@@H](CCCCN)C(=O)N[C@@H](CC(=O)O)C(=O)N[C@H](C(=O)N[C@@H](C)C(=O)N[C@@H](CC(C)C)C(=O)N[C@@H](CO)C(=O)N[C@@H](CC(C)C)C(=O)N[C@@H](CC(=O)O)C(=O)N[C@@H](CC(=O)O)C(=O)N[C@H](C(=O)N[C@@H](CCCCN)C(=O)O)C(C)C)C(C)C [Peptide 23, Ac-nitroTyr-SGKDVALSLDDV-K-OH] (Ac-[Tyr(3-NO2)]SGKDVALSLDDVK-OH) | 100 | 59.2 | not efficiently cleaved |
| CC[C@H](C)[C@H](NC(=O)[C@H](Cc1ccccc1)NC(=O)[C@H](Cc1ccc(O)cc1)NC(=O)[C@H](Cc1c[nH]cn1)NC(=O)[C@@H](NC(=O)[C@H](Cc1c[nH]c2ccccc12)NC(=O)[C@H](CCCCN)NC(=O)CNC(=O)[C@H](CO)NC(=O)[C@H](Cc1ccc(O)c([N+](=O)[O-])c1)NC(C)=O)[C@@H](C)O)C(=O)N[C@@H](CC(=O)O)C(=O)N[C@@H](CC(C)C)C(=O)N[C@@H](CC(N)=O)C(=O)N[C@@H](CCCCN)C(=O)O [Peptide 19, Ac-nitroTyr-SGKWTHYFIDLN-K-OH] (Ac-[Tyr(3-NO2)]SGKWTHYFIDLNK-OH) | 100 | 100.0 |  |
| CC(C)C[C@H](N)C(=O)N1CCC[C@H]1C(=O)N[C@@H](CC(N)=O)C(=O)NCC(=O)N[C@H](C(=O)N[C@@H](Cc1ccccc1)C(=O)N[C@H](C(=O)N1CCC[C@H]1C(=O)N[C@@H](CC(=O)O)C(=O)N[C@@H](Cc1ccccc1)C(=O)N[C@@H](CCC(N)=O)C(=O)N[C@@H](CCC(=O)O)C(=O)N[C@@H](Cc1ccccc1)C(=O)N[C@H](C(=O)N[C@@H](CC(N)=O)C(=O)N[C@@H](CCCCN)C(=O)N[C@@H](CO)C(=O)N[C@@H](C)C(=O)N[C@@H](Cc1ccc(O)c([N+](=O)[O-])c1)C(=O)NCC(=O)O)C(C)C)[C@@H](C)O)C(C)C [LPNGVFTPDFQEFVN-K-SA-nitroTyr-G] (H-LPNGVFTPDFQEFVNKSA[Tyr(3-NO2)]G-OH) | 95.4 |  |  |
| CC[C@H](C)[C@H](NC(=O)[C@H](Cc1ccccc1)NC(=O)[C@H](Cc1ccc(O)cc1)NC(=O)[C@H](Cc1c[nH]cn1)NC(=O)[C@@H](NC(=O)[C@H](CC(=O)O)NC(=O)[C@H](CCCCN)NC(=O)CNC(=O)[C@H](CO)NC(=O)[C@H](Cc1ccc(O)c([N+](=O)[O-])c1)NC(C)=O)[C@@H](C)O)C(=O)N[C@@H](CC(=O)O)C(=O)N[C@@H](CC(C)C)C(=O)N[C@@H](CC(N)=O)C(=O)N[C@@H](CCCCN)C(=O)O [Peptide 3, Ac-nitroTyr-SGKDTHYFIDLN-K-OH] (Ac-[Tyr(3-NO2)]SGKDTHYFIDLNK-OH) | 100 | 60.2 | not efficiently cleaved |
| CC[C@H](C)[C@H](NC(=O)[C@@H](NC(=O)[C@@H](N)CO)C(C)C)C(=O)N[C@@H](CC(=O)O)C(=O)N1CCC[C@H]1C(=O)N[C@H](C(=O)N1CCC[C@H]1C(=O)N[C@@H](C)C(=O)N1CCC[C@H]1C(=O)N[C@H](C(=O)NCC(=O)N[C@@H](CC(=O)O)C(=O)N[C@@H](CO)C(=O)N[C@@H](Cc1c[nH]cn1)C(=O)N[C@H](C(=O)N[C@@H](CC(=O)O)C(=O)NCC(=O)N[C@@H](C)C(=O)N[C@@H](C)C(=O)N[C@@H](CCCCN)C(=O)N[C@@H](CO)C(=O)N[C@@H](C)C(=O)N[C@@H](Cc1ccc(O)c([N+](=O)[O-])c1)C(=O)NCC(=O)O)C(C)C)C(C)C)C(C)C [Peptide 2] (H-SVIDPVPAPVGDSHVDGAAKSA[Tyr(3-NO2)]G-OH) | 100 |  |  |
